Results taken from ChEMBL document CHEMBL1268823, “Bernthsen synthesis, antimicrobial activities and cytotoxicity of acridine derivatives” (Bioorg Med Chem Lett, 2010).
≈ marks a conversion by molar mass, not a printed value.

Tests used:
Staphylococcus aureus = test: Antimicrobial activity against Staphylococcus aureus by agar plate disk diffusion method; assay type: functional
Streptococcus pyogenes = test: Antimicrobial activity against Streptococcus pyogenes by agar plate disk diffusion method; assay type: functional
Escherichia coli = test: Antimicrobial activity against Escherichia coli by agar plate disk diffusion method; assay type: functional
Pseudomonas aeruginosa = test: Antimicrobial activity against Pseudomonas aeruginosa by agar plate disk diffusion method; assay type: functional
Aspergillus niger = test: Antifungal activity against Aspergillus niger by agar plate disk diffusion method; assay type: functional
HEp-2 = test: Cytotoxicity against human Hep2 cells by MTT assay; assay type: functional, cell-based
HL-60 = test: Cytotoxicity against human HL60 cells by MTT assay; assay type: functional, cell-based
HEK-293T = test: Cytotoxicity against human HEK293T cells by MTT assay; assay type: functional, cell-based

Compound	MIC (Staphylococcus aureus) [µg/mL]	MIC (Streptococcus pyogenes) [µg/mL]	MIC (Escherichia coli) [µg/mL]	MIC (Pseudomonas aeruginosa) [µg/mL]	MIC (Aspergillus niger) [µg/mL]	IC50 (HEp-2) [µM]	IC50 (HL-60) [µM]	IC50 (HEK-293T) [µM]
O=c1cc(Cc2c3ccccc3nc3ccccc23)c2ccc(O)cc2o1	500 (≈ 1410 µM)	500 (≈ 1410 µM)	200 (≈ 566 µM)	250 (≈ 707 µM)	> 1000	> 100	> 100	> 100
NYSTATIN	–	–	–	–	100	–	–	–
CCn1cc(C(=O)O)c(=O)c2cc(F)c(N3CCNCC3)cc21 [NORFLOXACIN]	10 (≈ 31.3 µM)	10 (≈ 31.3 µM)	10 (≈ 31.3 µM)	10 (≈ 31.3 µM)	–	–	–	–
O=c1cc(Cc2c3ccccc3nc3ccccc23)c2ccccc2o1	250 (≈ 741 µM)	250 (≈ 741 µM)	250 (≈ 741 µM)	250 (≈ 741 µM)	500 (≈ 1480 µM)	> 100	> 100	> 100
O=P1(N(CCCl)CCCl)NCCCO1 (stereo not drawn) [CYCLOPHOSPHAMIDE ANHYDROUS]	–	–	–	–	–	> 100	8.79	> 100
COC1=CC(=O)C[C@@H](C)[C@]12Oc1c(Cl)c(OC)cc(OC)c1C2=O [GRISEOFULVIN]	–	–	–	–	100 (≈ 283 µM)	–	–	–
O=C(O)c1cn(C2CC2)c2cc(N3CCNCC3)c(F)cc2c1=O [CIPROFLOXACIN]	50 (≈ 151 µM)	50 (≈ 151 µM)	25 (≈ 75.4 µM)	–	–	–	–	–
O=c1cc(Cc2c3ccccc3nc3ccccc23)c2ccc([N+](=O)[O-])cc2o1	250 (≈ 654 µM)	500 (≈ 1310 µM)	100 (≈ 262 µM)	200 (≈ 523 µM)	500 (≈ 1310 µM)	> 100	> 100	> 100
O=c1cc(Cc2c3ccccc3nc3ccccc23)c2cc(O)ccc2o1	500 (≈ 1410 µM)	250 (≈ 707 µM)	50 (≈ 141 µM)	100 (≈ 283 µM)	–	> 100	> 100	> 100
O=c1cc(Cc2c3ccccc3nc3ccccc23)c2cc(Cl)ccc2o1	250 (≈ 672 µM)	75 (≈ 202 µM)	75 (≈ 202 µM)	25 (≈ 67.2 µM)	1000 (≈ 2690 µM)	> 100	28.7	> 100
Cc1ccc2oc(=O)cc(Cc3c4ccccc4nc4ccccc34)c2c1	125 (≈ 356 µM)	100 (≈ 285 µM)	125 (≈ 356 µM)	125 (≈ 356 µM)	500 (≈ 1420 µM)	> 100	> 100	> 100
O=C(N[C@H](CO)[C@H](O)c1ccc([N+](=O)[O-])cc1)C(Cl)Cl [CHLORAMPHENICOL]	50 (≈ 155 µM)	50 (≈ 155 µM)	50 (≈ 155 µM)	50 (≈ 155 µM)	–	–	–	–
O=c1cc(Cc2c3ccccc3nc3ccccc23)c2ccc(Cl)cc2o1	50 (≈ 134 µM)	250 (≈ 672 µM)	50 (≈ 134 µM)	500 (≈ 1340 µM)	1000 (≈ 2690 µM)	> 100	27.5	> 100
CC1(C)S[C@@H]2[C@H](NC(=O)[C@H](N)c3ccccc3)C(=O)N2[C@H]1C(=O)O [AMPICILLIN]	250 (≈ 715 µM)	100 (≈ 286 µM)	100 (≈ 286 µM)	100 (≈ 286 µM)	–	–	–	–
Cc1ccc2c(Cc3c4ccccc4nc4ccccc34)cc(=O)oc2c1	500 (≈ 1420 µM)	50 (≈ 142 µM)	150 (≈ 427 µM)	62.5 (≈ 178 µM)	1000 (≈ 2850 µM)	> 100	> 100	> 100
